# Results taken from the supplement of paper PMC10307832.
# What was measured:
# Assay in all cases: relative viability (nuclei count vs DMSO), 5 days (fraction); higher = more cells survive
# BAM7 + Olaparib = compound: CCOC1=CC=CC=C1N=NC2=C(NN(C2=O)C3=NC(=CS3)C4=CC=CC=C4)C [BAM7] + O=C(c1cc(Cc2n[nH]c(=O)c3ccccc23)ccc1F)N1CCN(C(=O)C2CC2)CC1 [Olaparib] (partner 8 µM)
# Method in brief: (§1)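 Dosing by pin tool came one day after lung cancer cell lines were seeded in 1536-well plates, using either one drug or a fixed anchor-drug dose plus five library-drug doses (not always all listed) in √10 steps. After 5 days, nuclei were counted on 4× images. Relative viability is treated-well nuclei count divided by vehicle-well nuclei count, and values are medians of duplicate plates.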
# [1] = compound: CCn1c(-c2nonc2N)nc2c(C#CC(C)(C)O)ncc(OC[C@H]3CCCNC3)c21 + CC(=O)Nc1cccc(-n2c(=O)n(C3CC3)c(=O)c3c(Nc4ccc(I)cc4F)n(C)c(=O)c(C)c32)c1 [Trametinib] (partner 0.02 µM)
# Method in brief: as §1
# [2] = compound: CCn1c(-c2nonc2N)nc2c(C#CC(C)(C)O)ncc(OC[C@H]3CCCNC3)c21 + COc1cccc2cc(-c3nc([C@H]4CC[C@H](C(=O)O)CC4)n4ncnc(N)c34)[nH]c12 [OSI-027] (partner 0.5 µM)
# Method in brief: as §1
# [3] = compound: CCn1c(-c2nonc2N)nc2c(C#CC(C)(C)O)ncc(OC[C@H]3CCCNC3)c21 + C[C@@H](Oc1cc(-c2cnn(C3CCNCC3)c2)cnc1N)c1c(Cl)ccc(F)c1Cl [Crizotinib] (partner 1 µM)
# Method in brief: as §1
Cell Line,relative viability (BAM7 + Olaparib; first compound 0.5 µM),relative viability (BAM7 + Olaparib; first compound 5 µM),relative viability (BAM7 + Olaparib; first compound 15.81 µM),relative viability (BAM7 + Olaparib; first compound 50 µM),relative viability ([1]; first compound 0.01 µM),relative viability ([1]; first compound 0.03162 µM),relative viability ([1]; first compound 0.1 µM),relative viability ([1]; first compound 0.3162 µM),relative viability ([1]; first compound 1 µM),relative viability ([2]; first compound 0.01 µM),relative viability ([2]; first compound 0.03162 µM),relative viability ([2]; first compound 0.1 µM),relative viability ([2]; first compound 0.3162 µM),relative viability ([2]; first compound 1 µM),relative viability ([3]; first compound 0.01 µM),relative viability ([3]; first compound 0.03162 µM),relative viability ([3]; first compound 0.1 µM),relative viability ([3]; first compound 0.3162 µM),relative viability ([3]; first compound 1 µM)
NCI-H2342,0.49,0.46,0.347,0.341,0.845,0.848,0.87,0.941,0.957,0.598,0.617,0.517,0.546,0.594,,,,,
SK-MES-1,0.82,0.703,0.613,0.704,0.61,0.52,0.569,0.465,0.503,0.642,0.598,0.552,0.531,0.609,0.989,0.982,0.963,0.909,0.982
HCC-366,0.328,0.263,0.226,0.307,0.391,0.312,0.364,0.334,0.293,0.963,0.834,0.45,1,0.838,0.505,0.644,0.59,0.501,0.534
201T,0.774,0.746,0.691,0.765,0.707,0.705,0.763,0.722,0.749,0.675,0.644,0.625,0.719,0.754,1.01,1.03,1.04,1,1.03
HCC-827,0.0377,0.627,0.62,0.649,0.532,0.5,0.546,0.504,0.462,0.74,0.769,0.698,0.639,0.667,0.884,0.917,0.879,0.865,0.882
NCI-H647,0.711,0.67,0.549,0.524,0.481,0.493,0.475,0.364,0.323,0.579,0.652,0.615,0.419,0.687,1.04,1.31,1.11,1.07,0.92
NCI-H2023,0.475,0.45,0.363,0.387,0.639,0.55,0.422,0.432,0.288,0.369,0.411,0.307,0.202,0.195,0.683,0.67,0.557,0.583,0.549
NCI-H520,0.401,0.432,0.342,0.344,0.645,0.789,0.574,0.322,0.2,0.221,0.266,0.208,0.183,0.173,0.732,1.02,0.616,0.644,0.452
RERF-LC-KJ,0.346,0.3,0.288,0.304,0.854,0.818,0.842,0.778,0.835,0.497,0.564,0.526,0.446,0.395,0.808,0.788,0.815,0.829,0.837
A-427,0.707,0.736,0.756,0.762,0.771,0.81,0.742,0.691,0.775,0.413,0.578,0.367,0.509,0.443,0.925,0.966,0.978,0.828,0.846
NCI-H441,0.76,0.523,0.561,0.574,0.435,0.39,0.452,0.397,0.378,0.675,0.67,0.466,0.469,0.437,0.676,0.621,0.708,0.586,0.728
NCI-H1703,0.497,0.454,0.357,0.62,,,,,,,,,,,0.465,0.656,0.59,0.482,0.376
NCI-H1792,0.42,0.374,0.391,0.425,0.472,0.424,0.504,0.344,0.387,0.739,,0.696,0.715,0.842,0.961,0.948,0.95,0.891,0.78
Calu-6,0.552,0.598,0.53,0.531,,,,,,,,,,,0.758,0.814,0.868,0.756,0.786
SK-LU-1,0.463,0.542,0.444,0.55,0.527,0.495,0.458,0.443,0.441,0.387,0.365,0.318,0.29,0.343,1.11,0.817,0.925,0.978,0.987
PC-3 [JPC-3],1.12,1.1,1.06,0.995,0.702,,0.732,0.648,0.687,0.786,0.699,0.808,0.736,0.682,0.944,0.988,1.04,0.909,0.993
EMC-BAC-2,0.485,0.476,0.469,0.565,0.864,,1.08,0.848,0.913,0.341,0.379,0.354,0.369,0.336,0.773,0.846,0.696,0.738,0.759
LK-2,0.885,0.891,0.918,0.666,0.574,0.878,0.525,0.686,0.869,0.199,0.212,0.179,0.218,0.173,0.247,0.181,0.215,0.24,0.232
